Converted amounts (≈) assume the structure as drawn.
How the values were obtained:
[1] = target: Core antigen (Hepatitis B virus) (UniProt Q03732); test: Modulation of capsid assembly in HBV infected in human HePAD38 cells assessed as inhibition of viral DNA replication measured after 96 hrs by qPCR analysis; type: cell-based; details: filed as modulator
Cytochrome P450 1A2 = target: T1, Cytochrome P450 1A2 (Homo sapiens, UniProt P05177); test: Inhibition of CYP1A2 (unknown origin); type: ADME
T1 sequence (P05177 whole entry): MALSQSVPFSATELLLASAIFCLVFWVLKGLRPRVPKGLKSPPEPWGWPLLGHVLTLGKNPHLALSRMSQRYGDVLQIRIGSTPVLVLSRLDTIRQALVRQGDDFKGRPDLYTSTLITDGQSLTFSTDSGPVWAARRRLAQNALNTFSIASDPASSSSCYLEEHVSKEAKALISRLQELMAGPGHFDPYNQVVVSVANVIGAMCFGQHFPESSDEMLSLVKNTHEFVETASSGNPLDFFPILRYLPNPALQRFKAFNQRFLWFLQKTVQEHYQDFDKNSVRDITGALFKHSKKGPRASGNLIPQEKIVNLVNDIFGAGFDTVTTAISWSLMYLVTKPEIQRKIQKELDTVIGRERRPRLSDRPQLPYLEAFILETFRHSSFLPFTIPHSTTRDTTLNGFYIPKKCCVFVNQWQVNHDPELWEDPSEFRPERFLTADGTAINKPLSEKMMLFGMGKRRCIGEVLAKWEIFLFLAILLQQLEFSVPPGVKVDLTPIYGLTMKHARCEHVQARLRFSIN

[2] = Ratio of EC50 for antiviral activity against HBV harboring core protein T128I mutant to EC50 for antiviral activity against HBV harboring wild type core protein; type: functional, Hepatitis B virus
[3] = Ratio of EC50 for antiviral activity against HBV harboring core protein F23Y mutant to EC50 for antiviral activity against HBV harboring wild type core protein; type: functional, Hepatitis B virus
[4] = Ratio of drug concentration in liver to blood in C57BL/6 mouse at 5 mg/kg, po measured after 4 hrs; type: ADME, organism-based
[5] = Ratio of EC50 for antiviral activity against HBV harboring core protein L37Q mutant to EC50 for antiviral activity against HBV harboring wild type core protein; type: functional, Hepatitis B virus
[6] = AUC in C57BL/6 mouse at 5 mg/kg, po and 2 mg/kg, iv; type: ADME, organism-based; design: dose 5 mg/kg, route po; details: in vivo
[7] = Ratio of EC50 for antiviral activity against HBV harboring core protein T33N mutant to EC50 for antiviral activity against HBV harboring wild type core protein; type: functional, Hepatitis B virus
[8] = Ratio of EC50 for antiviral activity against HBV harboring core protein Y118F mutant to EC50 for antiviral activity against HBV harboring wild type core protein; type: functional, Hepatitis B virus
[9] = Metabolic stability of the compound in human hepatocytes assessed as parent compound remaining measured after 4 hrs; type: ADME, cell-based, Hepatocyte; details: read-out: Stability
[10] = target: Core antigen (Hepatitis B virus) (UniProt Q03732); test: Modulation of capsid assembly in HBV infected in human HePAD38 cells assessed as fold shift in inhibition of viral DNA replication in presence of 40% normal human serum measured after 96 hrs by qPCR analysis; type: cell-based; details: filed as modulator
[11] = Volume of distribution in C57BL/6 mouse at 2 mg/kg, iv; type: ADME, organism-based; details: in vivo
Hepatitis B virus [12] = test: Antiviral activity against HBV in HBV transgenic mouse assessed as inhibition of viral replication by measuring log reduction of serum HBV DNA content at 75 mg/kg, po BID for 3 days; type: functional; details: time 3 day
Cytochrome P450 2D6 = Cytochrome P450 2D6 (Homo sapiens, UniProt P10635); test: Inhibition of CYP2D6 (unknown origin); type: ADME
[13] = Plasma clearance in C57BL/6 mouse at 2 mg/kg, iv; type: ADME, organism-based
[14] = Metabolic stability of the compound in mouse hepatocytes assessed as parent compound remaining measured after 4 hrs; type: ADME, cell-based, Hepatocyte; details: read-out: Stability
[15] = Half life in C57BL/6 mouse at 2 mg/kg, iv; type: ADME, organism-based; details: in vivo
[16] = Ratio of EC50 for antiviral activity against HBV harboring core protein I105T mutant to EC50 for antiviral activity against HBV harboring wild type core protein; type: functional, Hepatitis B virus
Hepatitis B virus [17] = test: Antiviral activity against HBV in HBV transgenic mouse assessed as inhibition of viral replication by measuring fold reduction of serum HBV DNA content at 75 mg/kg, po BID for 3 days relative to control; type: functional; details: time 3 day
[18] = Cmax in C57BL/6 mouse at 5 mg/kg, po; type: ADME, organism-based; design: dose 5 mg/kg, route po; details: in vivo
Hepatitis B virus [19] = test: Antiviral activity against HBV in HBV transgenic mouse assessed as inhibition of viral replication by measuring reduction of serum HBV DNA content administered orally BID for 3 days; type: functional, organism-based; details: dose 25-75 mg/kg, route po, time 3.0 day, DDE = dose-dependent effect
Hepatitis B virus [20] = test: Antiviral activity against HBV in HBV transgenic mouse assessed as inhibition of viral replication by measuring reduction of serum HBV DNA content at 25 to 75 mg/kg, po BID for 3 days; type: functional, organism-based; details: dose 25-75 mg/kg, time 3.0 day, TDE = time-dependent effect
[21] = Cytotoxicity against human HePAD38 cells up to 10 uM by CellTiter-Blue assay; type: toxicity, cell-based; details: hepad38, 10 µM
Hepatitis B virus [22] = test: Antiviral activity against HBV in HBV transgenic mouse assessed as inhibition of viral replication by measuring fold reduction of serum HBV DNA content at 25 mg/kg, po BID for 3 days relative to control; type: functional; details: time 3 day
[23] = Toxicity in HBV transgenic mouse assessed as liver damage at 25 to 75 mg/kg, po BID for 3 days; type: organism-based; details: in vivo, 72 h, dose 25-75 mg/kg, time 3 day
[24] = Ratio of EC50 for antiviral activity against HBV harboring core protein T33P mutant to EC50 for antiviral activity against HBV harboring wild type core protein; type: functional, Hepatitis B virus
[25] = Mutagenicity in Escherichia coli upto 1250 ug/plate in presence of S9 fraction by Ames test; type: toxicity, subcellular; details: dose < 1250 µg
[26] = Oral bioavailability in C57BL/6 mouse at 5 mg/kg; type: ADME, organism-based; details: in vivo
[27] = Mutagenicity in Salmonella typhimurium upto 1250 ug/plate in absence of S9 fraction by Ames test; type: toxicity; details: salmonella enterica subsp. enterica serovar typhimurium, dose < 1250 µg
Hepatitis B virus [28] = test: Antiviral activity against HBV in HBV transgenic mouse assessed as inhibition of viral replication by measuring log reduction of serum HBV DNA content at 25 mg/kg, po BID for 3 days; type: functional; details: time 3 day
[29] = Ratio of EC50 for antiviral activity against HBV harboring core protein V124G mutant to EC50 for antiviral activity against HBV harboring wild type core protein; type: functional, Hepatitis B virus
HepG2 2.2.15 = test: Cytotoxicity against human HepG2.2.15 cells up to 10 uM by CellTiter-Blue assay; type: toxicity, cell-based; details: hepg2 2.2.15, 10 µM
[30] = Mutagenicity in Escherichia coli upto 1250 ug/plate in absence of S9 fraction by Ames test; type: toxicity; details: dose < 1250 µg
[31] = Mutagenicity in Salmonella typhimurium upto 1250 ug/plate in presence of S9 fraction by Ames test; type: toxicity, subcellular; details: salmonella enterica subsp. enterica serovar typhimurium, dose < 1250 µg
Cytochrome P450 3A4 = Cytochrome P450 3A4 (Homo sapiens, UniProt P08684); test: Inhibition of CYP3A4 (unknown origin); type: ADME
[32] = Kinetic solubility of the compound at pH 7.4; type: physicochemical; details: buffer, read-out: Kinetic_solubility
[33] = target: Voltage-gated inwardly rectifying potassium channel KCNH2 (Homo sapiens, UniProt Q12809); test: Inhibition of hERG; type: toxicity
[34] = Ratio of EC50 for antiviral activity against HBV harboring core protein F110I mutant to EC50 for antiviral activity against HBV harboring wild type core protein; type: functional, Hepatitis B virus

Sequence of Core antigen (Hepatitis B virus) (Q03732 as listed by the source): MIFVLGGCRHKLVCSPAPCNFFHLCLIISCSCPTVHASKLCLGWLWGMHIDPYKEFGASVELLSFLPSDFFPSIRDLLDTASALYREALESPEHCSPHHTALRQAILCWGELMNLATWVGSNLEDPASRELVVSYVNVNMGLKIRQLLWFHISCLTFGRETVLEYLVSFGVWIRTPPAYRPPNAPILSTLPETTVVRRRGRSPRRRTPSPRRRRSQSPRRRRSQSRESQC
Sequence of Cytochrome P450 2D6 (P10635 whole entry): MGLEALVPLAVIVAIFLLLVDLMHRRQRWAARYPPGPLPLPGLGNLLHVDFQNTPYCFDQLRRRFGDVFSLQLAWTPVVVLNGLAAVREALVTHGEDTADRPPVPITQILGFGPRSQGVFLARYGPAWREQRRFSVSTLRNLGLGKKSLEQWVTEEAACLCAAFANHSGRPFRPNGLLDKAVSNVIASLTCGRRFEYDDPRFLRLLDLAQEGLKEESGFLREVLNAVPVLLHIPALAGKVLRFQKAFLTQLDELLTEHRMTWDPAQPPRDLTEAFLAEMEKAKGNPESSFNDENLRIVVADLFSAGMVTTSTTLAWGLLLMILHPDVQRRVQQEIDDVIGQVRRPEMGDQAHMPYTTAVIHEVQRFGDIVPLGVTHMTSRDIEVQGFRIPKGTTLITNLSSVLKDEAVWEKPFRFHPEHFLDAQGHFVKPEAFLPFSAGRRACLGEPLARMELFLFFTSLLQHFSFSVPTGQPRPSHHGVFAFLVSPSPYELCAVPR
Sequence of Voltage-gated inwardly rectifying potassium channel KCNH2 (Q12809 whole entry): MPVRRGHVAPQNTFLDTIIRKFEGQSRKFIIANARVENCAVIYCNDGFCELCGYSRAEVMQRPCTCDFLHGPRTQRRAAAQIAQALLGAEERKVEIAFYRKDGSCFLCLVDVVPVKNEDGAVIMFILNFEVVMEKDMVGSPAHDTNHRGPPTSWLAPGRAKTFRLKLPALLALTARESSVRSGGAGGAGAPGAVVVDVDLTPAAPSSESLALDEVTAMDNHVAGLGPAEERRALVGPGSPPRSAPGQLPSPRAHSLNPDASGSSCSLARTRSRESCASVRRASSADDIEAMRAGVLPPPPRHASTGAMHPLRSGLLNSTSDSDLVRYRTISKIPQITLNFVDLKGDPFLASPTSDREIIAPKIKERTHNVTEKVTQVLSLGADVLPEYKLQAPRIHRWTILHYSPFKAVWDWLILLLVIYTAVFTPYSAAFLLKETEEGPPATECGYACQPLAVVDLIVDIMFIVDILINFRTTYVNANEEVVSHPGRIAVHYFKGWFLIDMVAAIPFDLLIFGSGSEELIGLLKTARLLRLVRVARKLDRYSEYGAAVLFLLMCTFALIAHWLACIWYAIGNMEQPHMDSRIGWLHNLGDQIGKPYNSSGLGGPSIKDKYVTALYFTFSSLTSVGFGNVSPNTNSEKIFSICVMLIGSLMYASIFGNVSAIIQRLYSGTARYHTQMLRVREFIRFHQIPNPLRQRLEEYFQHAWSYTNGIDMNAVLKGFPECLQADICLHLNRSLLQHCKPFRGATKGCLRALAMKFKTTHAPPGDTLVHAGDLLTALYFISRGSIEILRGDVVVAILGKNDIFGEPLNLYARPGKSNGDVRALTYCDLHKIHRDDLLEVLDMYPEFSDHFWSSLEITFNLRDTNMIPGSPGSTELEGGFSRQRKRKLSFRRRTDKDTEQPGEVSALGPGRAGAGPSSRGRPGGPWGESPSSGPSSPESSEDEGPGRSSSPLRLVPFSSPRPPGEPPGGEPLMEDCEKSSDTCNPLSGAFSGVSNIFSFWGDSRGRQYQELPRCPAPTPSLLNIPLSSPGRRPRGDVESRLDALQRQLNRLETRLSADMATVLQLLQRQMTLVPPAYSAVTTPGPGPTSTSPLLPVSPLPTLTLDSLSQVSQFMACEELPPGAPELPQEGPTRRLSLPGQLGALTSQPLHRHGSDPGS
Sequence of Cytochrome P450 3A4 (P08684 whole entry): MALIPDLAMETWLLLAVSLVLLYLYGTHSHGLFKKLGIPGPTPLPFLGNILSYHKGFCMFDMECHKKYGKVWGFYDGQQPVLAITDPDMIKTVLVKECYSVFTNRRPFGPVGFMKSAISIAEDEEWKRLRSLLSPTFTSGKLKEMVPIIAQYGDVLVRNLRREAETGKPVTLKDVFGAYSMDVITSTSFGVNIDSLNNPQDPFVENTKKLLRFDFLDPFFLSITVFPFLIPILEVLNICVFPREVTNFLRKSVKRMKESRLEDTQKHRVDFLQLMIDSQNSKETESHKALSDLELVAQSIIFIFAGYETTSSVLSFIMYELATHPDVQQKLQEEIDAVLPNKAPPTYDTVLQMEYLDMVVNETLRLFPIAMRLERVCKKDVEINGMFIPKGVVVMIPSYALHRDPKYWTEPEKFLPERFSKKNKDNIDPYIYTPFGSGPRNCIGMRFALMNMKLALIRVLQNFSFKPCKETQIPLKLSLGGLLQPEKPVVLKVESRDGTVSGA

## Cc1cc(NC(=O)c2cc(S(N)(=O)=O)c(N)cc2C)ccc1F
[1]
  EC90: 390 nM

## Nc1ccc(C(=O)Nc2cc(F)c(F)c(F)c2)cc1S(N)(=O)=O
[1]
  EC90: 490 nM

## Cc1cc(N)c(S(N)(=O)=O)cc1C(=O)Nc1cc(F)c(F)c(F)c1
Cytochrome P450 1A2
  IC50: 12400 nM
[2]
  Ratio EC50: 3.1
[3]
  Ratio EC50: 3.1
[1]
  EC90: 260 nM
[4]
  Kp at 4 h: 10
[5]
  Ratio EC50: 3.1
[6]
  AUC: 33 µM·h
[7]
  Ratio EC50: 3.1
[8]
  Ratio EC50: 3.1
[9]
  remaining at 4 h: 90%
[10]
  fold change (FC): 16.9
[11]
  Vd: 2.3 L/kg
Hepatitis B virus [12]
  log(activity): 1.68
Cytochrome P450 2D6
  IC50: > 15000 nM
[13]
  clearance: 8 mL/min/kg
[14]
  remaining at 4 h: 100%
[15]
  half-life: 3.2 h
[16]
  Ratio EC50: 3.1
Hepatitis B virus [17]
  fold change (FC): 48.3
[18]
  Cmax: 3.6 µM
Hepatitis B virus [19]
  Activity: Dde
Hepatitis B virus [20]
  Activity: Tde
[21]
  Activity: Non-Toxic
Hepatitis B virus [22]
  fold change (FC): 15.2
[23]
  Activity: Non-Toxic
[24]
  Ratio EC50: 3.1
[25]
  Activity: Non-Toxic
[26]
  bioavailability: 114%
[27]
  Activity: Non-Toxic
Hepatitis B virus [28]
  log(activity): 1.18
[29]
  Ratio EC50: 3.1
HepG2 2.2.15
  Activity: Non-Toxic
[30]
  Activity: Non-Toxic
[31]
  Activity: Non-Toxic
Cytochrome P450 3A4
  IC50: > 30000 nM
[32]
  solubility kinetic: 29.2 µM (≈ 10.5 µg/mL)
[33]
  IC50: > 30000 nM
[34]
  Ratio EC50: 3.1

## Cc1cc(NC(=O)c2ccc(N)c(S(N)(=O)=O)c2)ccc1F
[1]
  EC90: 700 nM

## O=C(Nc1cc(F)c(F)c(F)c1)c1ccc(F)c(S(=O)(=O)N2CCC(O)CC2)c1
[1]
  EC90: 1130 nM

## Nc1cc(Br)c(C(=O)Nc2cc(F)c(F)c(F)c2)cc1S(N)(=O)=O
[1]
  EC90: 2780 nM

## Cc1cc(N)c(S(N)(=O)=O)cc1C(=O)Nc1ccc(F)c(C(F)F)c1
[1]
  EC90: 660 nM

## Nc1cc(F)c(C(=O)Nc2cc(F)c(F)c(F)c2)cc1S(N)(=O)=O
[1]
  EC90: 1090 nM

## Nc1ccc(C(=O)Nc2ccc(F)c(C(F)(F)F)c2)cc1S(N)(=O)=O
[1]
  EC90: 3650 nM

## Nc1cc(Cl)c(C(=O)Nc2cc(F)c(F)c(F)c2)cc1S(N)(=O)=O
[1]
  EC90: 1240 nM

## N#Cc1cc(NC(=O)c2ccc(N)c(S(N)(=O)=O)c2)ccc1F
[1]
  EC90: 2530 nM

## NS(=O)(=O)c1cc(C(=O)Nc2cc(F)c(F)c(F)c2)ccc1F
[1]
  EC90: 8130 nM

## Cc1cc(N)c(S(N)(=O)=O)cc1C(=O)Nc1ccc(F)c(C(F)(F)F)c1
[1]
  EC90: 2630 nM

## Cc1cc(C(=O)Nc2cc(F)c(F)c(F)c2)cc(S(N)(=O)=O)c1N
[1]
  EC90: 1540 nM

## CNc1ccc(C(=O)Nc2cc(F)c(F)c(F)c2)cc1S(N)(=O)=O
[1]
  EC90: 20800 nM

## Cc1cc(N)c(S(N)(=O)=O)cc1C(=O)Nc1ccc(F)c(Cl)c1
[1]
  EC90: 390 nM

## Cc1cc(N)c(S(N)(=O)=O)cc1C(=O)Nc1ccc(F)c(C#N)c1
[1]
  EC90: 1210 nM

## Nc1ccc(C(=O)Nc2ccc(F)c(Cl)c2)cc1S(N)(=O)=O
[1]
  EC90: 360 nM

## Nc1ccc(C(=O)Nc2ccc(F)c(C(F)F)c2)cc1S(N)(=O)=O
[1]
  EC90: 480 nM
